Source: PubChem BioAssay (NCI)
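Following 48 hours of exposure in 96-well plates, responses at five concentrations were used to interpolate endpoints linearly. At the TGI there is no net growth.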

Assays:
Test in all cases: NCI tumour cell line growth inhibition, 48 h
786-0 renal = system: 786-0 renal
A498 renal = system: A498 renal
A549 NSCLC = system: A549 NSCLC
ACHN renal = system: ACHN renal
BT-549 breast = system: BT-549 breast
CCRF-CEM leukemia = system: CCRF-CEM leukemia
COLO 205 colon = system: COLO 205 colon
DU-145 prostate = system: DU-145 prostate
HCC-2998 colon = system: HCC-2998 colon
HCT-116 colon = system: HCT-116 colon
HCT-15 colon = system: HCT-15 colon
HL-60(TB) leukemia = system: HL-60(TB) leukemia
HOP-62 NSCLC = system: HOP-62 NSCLC
HOP-92 NSCLC = system: HOP-92 NSCLC
HS 578T breast = system: HS 578T breast
HT29 colon = system: HT29 colon
IGROV1 ovarian = system: IGROV1 ovarian
K-562 leukemia = system: K-562 leukemia
KM12 colon = system: KM12 colon
LOX IMVI melanoma = system: LOX IMVI melanoma
M14 melanoma = system: M14 melanoma
MDA-MB-435 = system: MDA-MB-435
MOLT-4 leukemia = system: MOLT-4 leukemia
NCI-H226 lung = system: NCI-H226 lung
NCI-H23 lung = system: NCI-H23 lung
NCI-H460 lung = system: NCI-H460 lung
NCI/ADR-RES ovarian = system: NCI/ADR-RES ovarian
OVCAR-3 ovarian = system: OVCAR-3 ovarian
OVCAR-4 ovarian = system: OVCAR-4 ovarian
OVCAR-5 ovarian = system: OVCAR-5 ovarian
OVCAR-8 ovarian = system: OVCAR-8 ovarian
PC-3 prostate = system: PC-3 prostate
RPMI-8226 leukemia = system: RPMI-8226 leukemia
RXF 393 renal = system: RXF 393 renal
SF-268 CNS = system: SF-268 CNS
SK-MEL-2 melanoma = system: SK-MEL-2 melanoma
SK-MEL-28 melanoma = system: SK-MEL-28 melanoma
SK-MEL-5 melanoma = system: SK-MEL-5 melanoma
SK-OV-3 ovarian = system: SK-OV-3 ovarian
SNB-19 CNS = system: SNB-19 CNS
SNB-75 CNS = system: SNB-75 CNS
SR leukemia = system: SR leukemia
SW-620 colon = system: SW-620 colon
T-47D breast = system: T-47D breast
U251 CNS = system: U251 CNS
UACC-257 melanoma = system: UACC-257 melanoma
UACC-62 melanoma = system: UACC-62 melanoma
CAKI-1 renal = system: CAKI-1 renal
MALME-3M melanoma = system: MALME-3M melanoma
MCF7 breast = system: MCF7 breast
NCI-H522 lung = system: NCI-H522 lung
SF-295 CNS = system: SF-295 CNS
SF-539 CNS = system: SF-539 CNS
SN12C renal = system: SN12C renal
TK-10 renal = system: TK-10 renal
UO-31 renal = system: UO-31 renal

Measured: TGI

COc1cc2c(cc1NC(=O)c1ccccc1)c1c(n2S(=O)(=O)c2ccccc2)CCN(S(=O)(=O)c2ccccc2)C1
> 100 µM: 786-0 renal | A498 renal | A549 NSCLC | ACHN renal | BT-549 breast | CCRF-CEM leukemia | COLO 205 colon | DU-145 prostate | HCC-2998 colon | HCT-116 colon | HCT-15 colon | HL-60(TB) leukemia | HOP-62 NSCLC | HOP-92 NSCLC | HS 578T breast | HT29 colon | IGROV1 ovarian | K-562 leukemia | KM12 colon | LOX IMVI melanoma | M14 melanoma | MDA-MB-435 | MOLT-4 leukemia | NCI-H226 lung | NCI-H23 lung | NCI-H460 lung | NCI/ADR-RES ovarian | OVCAR-3 ovarian | OVCAR-4 ovarian | OVCAR-5 ovarian | OVCAR-8 ovarian | PC-3 prostate | RPMI-8226 leukemia | RXF 393 renal | SF-268 CNS | SK-MEL-2 melanoma | SK-MEL-28 melanoma | SK-MEL-5 melanoma | SK-OV-3 ovarian | SNB-19 CNS | SNB-75 CNS | SR leukemia | SW-620 colon | T-47D breast | U251 CNS | UACC-257 melanoma | UACC-62 melanoma

Cc1c2c(n3c(nc4ccccc43)c1C#N)N(c1ccc(F)cc1)CC2
> 100 µM: 786-0 renal | A498 renal | A549 NSCLC | ACHN renal | BT-549 breast | CAKI-1 renal | CCRF-CEM leukemia | COLO 205 colon | DU-145 prostate | HCC-2998 colon | HCT-116 colon | HCT-15 colon | HL-60(TB) leukemia | HOP-62 NSCLC | HOP-92 NSCLC | HS 578T breast | HT29 colon | IGROV1 ovarian | LOX IMVI melanoma | MALME-3M melanoma | MCF7 breast | MDA-MB-435 | NCI-H226 lung | NCI-H23 lung | NCI-H460 lung | NCI-H522 lung | NCI/ADR-RES ovarian | OVCAR-3 ovarian | OVCAR-4 ovarian | OVCAR-5 ovarian | OVCAR-8 ovarian | PC-3 prostate | RXF 393 renal | SF-268 CNS | SF-295 CNS | SF-539 CNS | SK-MEL-2 melanoma | SK-MEL-28 melanoma | SK-MEL-5 melanoma | SK-OV-3 ovarian | SN12C renal | SNB-19 CNS | SNB-75 CNS | SR leukemia | SW-620 colon | TK-10 renal | U251 CNS | UACC-257 melanoma | UACC-62 melanoma | UO-31 renal
